One may read the TD50 as the dose at which the toxic effect under study appears in half of the subjects.

The data set concerns rodent lifetime carcinogenesis bioassay, tumor incidence TD50. Kind of data set: chronic cancer bioassays in animals – CPDB, compiled studies (AID 1745844).

The source made the active and inactive calls. How the calls were made is not given here.

For `ClC(Cl)Br`, the TD50 reads like this: (mouse, strain B6C3F1, females, by gavage, site: any site (literature study), lesion: several types, types named in the paper, dosed 102 weeks, study length 105 weeks) 62.9 mg/kg/day; (mouse, strain B6C3F1, females, by gavage, site: liver, lesion: hepatocellular adenoma + hepatocellular carcinoma + neoplastic nodule, dosed 102 weeks, study length 105 weeks) 28.9 mg/kg/day; (mouse, strain B6C3F1, females, by gavage, site: liver, lesion: hepatocellular adenoma + hepatocellular carcinoma, dosed 102 weeks, study length 105 weeks) 28.9 mg/kg/day; (mouse, strain B6C3F1, females, by gavage, site: liver, lesion: hepatocellular adenoma, dosed 102 weeks, study length 105 weeks) 36 mg/kg/day; (mouse, strain B6C3F1, females, by gavage, site: liver, lesion: hepatocellular carcinoma, dosed 102 weeks, study length 105 weeks) 144 mg/kg/day; (mouse, strain B6C3F1, females, by gavage, site: lung, lesion: alveolar/bronchiolar adenoma + alveolar/bronchiolar carcinoma, dosed 102 weeks, study length 105 weeks) 644 mg/kg/day. Besides, the TD50 is 132 mg/kg/day (mouse, strain B6C3F1, females, by gavage, site: multiple organs + spleen, lesion: malignant lymphoma, histiocytic type, dosed 102 weeks, study length 105 weeks); 336 mg/kg/day (mouse, strain B6C3F1, males, by gavage, site: kidney, lesion: tubular-cell adenocarcinoma, dosed 102 weeks, study length 104 weeks); 137 mg/kg/day (mouse, strain B6C3F1, males, by gavage, site: kidney, lesion: tubular-cell adenoma + tubular-cell adenocarcinoma, dosed 102 weeks, study length 104 weeks); 215 mg/kg/day (mouse, strain B6C3F1, males, by gavage, site: kidney, lesion: tubular-cell adenoma, dosed 102 weeks, study length 104 weeks); 74.2 mg/kg/day (mouse, strain B6C3F1, males, by gavage, site: multiple organs, lesion: malignant lymphoma, lymphocytic type, dosed 102 weeks, study length 104 weeks); 84.8 mg/kg/day (rat, strain Fischer 344, females, by gavage, site: colon + kidney, lesion: adenocarcinoma, NOS + adenomatous polyp, NOS + tubular-cell adenoma + tubular-cell adenocarcinoma, dosed 102 weeks, study length 104 weeks). Also, the TD50 by setting is: (rat, strain Fischer 344, females, by gavage, site: colon, lesion: adenocarcinoma, NOS + adenomatous polyp, NOS, dosed 102 weeks, study length 104 weeks) 200 mg/kg/day; (rat, strain Fischer 344, females, by gavage, site: colon, lesion: adenocarcinoma, NOS, dosed 102 weeks, study length 104 weeks) 411 mg/kg/day; (rat, strain Fischer 344, females, by gavage, site: colon, lesion: adenomatous polyp, NOS, dosed 102 weeks, study length 104 weeks) 364 mg/kg/day; (rat, strain Fischer 344, females, by gavage, site: kidney, lesion: tubular-cell adenocarcinoma, dosed 102 weeks, study length 104 weeks) 272 mg/kg/day; (rat, strain Fischer 344, females, by gavage, site: kidney, lesion: tubular-cell adenoma + tubular-cell adenocarcinoma, dosed 102 weeks, study length 104 weeks) 143 mg/kg/day; (rat, strain Fischer 344, females, by gavage, site: kidney, lesion: tubular-cell adenoma, dosed 102 weeks, study length 104 weeks) 351 mg/kg/day. The TD50 was 267 mg/kg/day (rat, strain Fischer 344, males, by gavage, site: any site (literature study), lesion: several types, types named in the paper, dosed 102 weeks, study length 104 weeks); 30.3 mg/kg/day (rat, strain Fischer 344, males, by gavage, site: colon + kidney + rectum, lesion: adenocarcinoma, NOS + adenomatous polyp, NOS + tubular-cell adenoma + tubular-cell adenocarcinoma, dosed 102 weeks, study length 104 weeks); 30.7 mg/kg/day (rat, strain Fischer 344, males, by gavage, site: colon + rectum, lesion: adenocarcinoma, NOS + adenomatous polyp, NOS, dosed 102 weeks, study length 104 weeks); 35.6 mg/kg/day (rat, strain Fischer 344, males, by gavage, site: colon + rectum, lesion: adenocarcinoma, NOS, dosed 102 weeks, study length 104 weeks); 55.6 mg/kg/day (rat, strain Fischer 344, males, by gavage, site: colon + rectum, lesion: adenomatous polyp, NOS, dosed 102 weeks, study length 104 weeks); 213 mg/kg/day (rat, strain Fischer 344, males, by gavage, site: kidney, lesion: tubular-cell adenocarcinoma, dosed 102 weeks, study length 104 weeks). The TD50 was 152 mg/kg/day (rat, strain Fischer 344, males, by gavage, site: kidney, lesion: tubular-cell adenoma + tubular-cell adenocarcinoma, dosed 102 weeks, study length 104 weeks); 583 mg/kg/day (rat, strain Fischer 344, males, by gavage, site: kidney, lesion: tubular-cell adenoma, dosed 102 weeks, study length 104 weeks); 747 mg/kg/day (rat, strain Fischer 344, males, by gavage, site: liver, lesion: hepatocellular adenoma + hepatocellular carcinoma + neoplastic nodule, dosed 102 weeks, study length 104 weeks); 366 mg/kg/day (rat, strain Fischer 344, males, by gavage, site: lung, lesion: alveolar/bronchiolar adenoma + alveolar/bronchiolar carcinoma, dosed 102 weeks, study length 104 weeks); 447 mg/kg/day (rat, strain Fischer 344, males, by gavage, site: lung, lesion: alveolar/bronchiolar adenoma, dosed 102 weeks, study length 104 weeks); 350 mg/kg/day (rat, strain Fischer 344, males, by gavage, site: tunica vaginalis, lesion: mesothelioma, NOS, dosed 102 weeks, study length 104 weeks). Further, the TD50 was 544 mg/kg/day (rat, strain Wistar, females, in drinking water, site: liver, lesion: neoplastic nodule, dosed 187 weeks, study length 187 weeks) and 911 mg/kg/day (rat, strain Wistar, males, in drinking water, site: pituitary gland, lesion: one or several types, types not named, dosed 182 weeks, study length 182 weeks).

With `[Cu+2].[O-]c1cccc2cccnc12.[O-]c1cccc2cccnc12`, the TD50 reads like this: (mouse, strain B6AKF1, females, oral dosing, site: any site (literature study), lesion: several types, types named in the paper, dosed 76 weeks, study length 76 weeks) 2490 mg/kg/day (inactive); (mouse, strain B6AKF1, males, oral dosing, site: any site (literature study), lesion: several types, types named in the paper, dosed 76 weeks, study length 76 weeks) 11200 mg/kg/day (inactive); (mouse, strain B6AKF1, males, oral dosing, site: liver, lesion: hepatoma, dosed 76 weeks, study length 76 weeks) 967 mg/kg/day (inactive); (mouse, strain B6C3F1, females, oral dosing, site: any site (literature study), lesion: several types, types named in the paper, dosed 76 weeks, study length 76 weeks) 2490 mg/kg/day (inactive); (mouse, strain B6C3F1, males, oral dosing, site: any site (literature study), lesion: several types, types named in the paper, dosed 76 weeks, study length 76 weeks) 2050 mg/kg/day (inactive). Besides, the carcinogen call runs as follows: (mouse, strain B6AKF1, females, oral dosing, site: liver, lesion: hepatoma, dosed 76 weeks, study length 76 weeks) “negative (inactive)”; (mouse, strain B6AKF1, females, oral dosing, site: lung, lesion: adenoma, dosed 76 weeks, study length 76 weeks) “negative (inactive)”; (mouse, strain B6AKF1, males, oral dosing, site: lung, lesion: adenoma, dosed 76 weeks, study length 76 weeks) “negative (inactive)”; (mouse, strain B6C3F1, females, oral dosing, site: liver, lesion: hepatoma, dosed 76 weeks, study length 76 weeks) “negative (inactive)”; (mouse, strain B6C3F1, females, oral dosing, site: lung, lesion: several types, types named in the paper, dosed 76 weeks, study length 76 weeks) “negative (inactive)”; (mouse, strain B6C3F1, males, oral dosing, site: liver, lesion: hepatoma, dosed 76 weeks, study length 76 weeks) “negative (inactive)”. For the same molecule, the carcinogen call (mouse, strain B6C3F1, males, oral dosing, site: lung, lesion: several types, types named in the paper, dosed 76 weeks, study length 76 weeks) was “negative (inactive)”.

Turning to `O=[N+]([O-])c1ccc(NCCO)c(OCCO)c1`, the carcinogen call runs as follows: (mouse, strain B6C3F1, females, in feed, site: any site (literature study), lesion: several types, types named in the paper, dosed 103 weeks, study length 104 weeks) “negative (inactive)”; (mouse, strain B6C3F1, males, in feed, site: any site (literature study), lesion: several types, types named in the paper, dosed 103 weeks, study length 104 weeks) “negative (inactive)”; (rat, strain Fischer 344, females, in feed, site: any site (literature study), lesion: several types, types named in the paper, dosed 103 weeks, study length 104 weeks) “negative (inactive)”. Besides, the TD50 (rat, strain Fischer 344, males, in feed, site: pituitary gland, lesion: pars distalis adenoma, dosed 103 weeks, study length 104 weeks) was determined as 465 mg/kg/day.

For the molecule `C/C=C/C=O`, the TD50 reads like this: (rat, strain Charles River, males, in drinking water, site: liver, lesion: neoplastic nodule, dosed 113 weeks, study length 113 weeks) 4.2 mg/kg/day; (rat, strain Charles River, males, in drinking water, site: liver, lesion: several types, types named in the paper, dosed 113 weeks, study length 113 weeks) 4.2 mg/kg/day.

With `CN(C)c1ccc(C(=C2C=CC(=[N+](C)C)C=C2)c2ccc(N(C)C)cc2)cc1`, the TD50 (mouse, strain B6C3F1, females, in feed, site: Harderian gland, lesion: adenoma, dosed 107 weeks, study length 107 weeks) is 305 mg/kg/day; the TD50 (mouse, strain B6C3F1, females, in feed, site: liver, lesion: hepatocellular adenoma, dosed 78 weeks, study length 78 weeks) is 115 mg/kg/day; the TD50 (mouse, strain B6C3F1, females, in feed, site: liver, lesion: hepatocellular adenoma, dosed 107 weeks, study length 107 weeks) was 75.5 mg/kg/day; the TD50 (mouse, strain B6C3F1, females, in feed, site: liver, lesion: hepatocellular carcinoma, dosed 78 weeks, study length 78 weeks) is 343 mg/kg/day; the TD50 (mouse, strain B6C3F1, females, in feed, site: liver, lesion: hepatocellular carcinoma, dosed 107 weeks, study length 107 weeks) is 57.9 mg/kg/day; the TD50 (mouse, strain B6C3F1, females, in feed, site: ovary, lesion: reticulum-cell sarcoma, type A, dosed 107 weeks, study length 107 weeks) is 912 mg/kg/day. Moreover, the TD50 reads like this: (mouse, strain B6C3F1, females, in feed, site: urinary bladder, lesion: reticulum-cell sarcoma, type A, dosed 107 weeks, study length 107 weeks) 834 mg/kg/day; (mouse, strain B6C3F1, females, in feed, site: uterus, lesion: reticulum-cell sarcoma, type A, dosed 107 weeks, study length 107 weeks) 413 mg/kg/day; (mouse, strain B6C3F1, females, in feed, site: vagina, lesion: reticulum-cell sarcoma, type A, dosed 107 weeks, study length 107 weeks) 668 mg/kg/day; (mouse, strain B6C3F1, males, in feed, site: Harderian gland, lesion: adenoma, dosed 107 weeks, study length 107 weeks) 615 mg/kg/day; (mouse, strain B6C3F1, males, in feed, site: liver, lesion: hepatocellular adenoma, dosed 78 weeks, study length 78 weeks) 636 mg/kg/day (inactive); (mouse, strain B6C3F1, males, in feed, site: liver, lesion: hepatocellular adenoma, dosed 107 weeks, study length 107 weeks) 139 mg/kg/day. For the same molecule, the TD50 (mouse, strain B6C3F1, males, in feed, site: liver, lesion: hepatocellular carcinoma, dosed 107 weeks, study length 107 weeks) is 222 mg/kg/day. The carcinogen call (mouse, strain B6C3F1, females, in feed, site: liver, lesion: one or several types, types not named, dosed 52 weeks, study length 52 weeks) is “negative (inactive)”; the carcinogen call (mouse, strain B6C3F1, males, in feed, site: liver, lesion: hepatocellular adenoma, dosed 52 weeks, study length 52 weeks) was “negative (inactive)”; the carcinogen call (mouse, strain B6C3F1, males, in feed, site: liver, lesion: hepatocellular carcinoma, dosed 78 weeks, study length 78 weeks) was “negative (inactive)”.

These data come from PubChem BioAssay AID1745844 (Carcinogenic Potency Database (CPDB), 2022).
